Reference: patent US8431593B2, “Heteroaryl amide derivatives” (H. Lundbeck A/S, priority 2006, dated 2013)
Like-named read-outs stand apart in the source and are kept apart here. One block for each molecule: values may come before it.

Biological target: T1, P2X7 receptor (Homo sapiens, UniProt Q99572)
T1 construct: host or cells: SH-SY5Y
T1 sequence (Q99572 1-595): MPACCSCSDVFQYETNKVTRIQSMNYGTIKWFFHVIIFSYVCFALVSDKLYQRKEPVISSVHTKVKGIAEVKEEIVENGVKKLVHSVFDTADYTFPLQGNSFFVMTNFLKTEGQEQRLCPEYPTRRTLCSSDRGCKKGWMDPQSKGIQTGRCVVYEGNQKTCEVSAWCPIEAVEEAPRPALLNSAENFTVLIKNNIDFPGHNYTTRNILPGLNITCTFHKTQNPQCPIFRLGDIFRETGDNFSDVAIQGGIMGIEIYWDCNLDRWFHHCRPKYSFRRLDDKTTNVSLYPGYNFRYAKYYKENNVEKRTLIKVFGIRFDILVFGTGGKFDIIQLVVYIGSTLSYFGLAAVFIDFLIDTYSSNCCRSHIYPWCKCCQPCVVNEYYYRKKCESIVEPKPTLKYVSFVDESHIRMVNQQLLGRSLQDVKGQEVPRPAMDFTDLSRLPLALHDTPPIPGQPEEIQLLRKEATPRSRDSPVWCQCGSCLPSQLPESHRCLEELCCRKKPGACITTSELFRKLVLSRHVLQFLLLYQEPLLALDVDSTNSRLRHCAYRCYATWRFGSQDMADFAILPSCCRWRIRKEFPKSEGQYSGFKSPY
Experiment: P2X7 calcium mobilization assay, high throughput, antagonist activity (Example 4A)
Assay type: cell-based
Method in brief: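 Antagonism was measured as calcium mobilization on FLIPR^TETRA after a 1 h room-temperature compound preincubation of dye-loaded cells. Baseline from no-agonist wells was subtracted from each well's maximum RFU.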

[1] = 50% decrease in the fluorescence response of cells exposed to 80 μM 2′(3′)-O-(4-benzoyl-benzoyl)adenosine 5′-triphosphate, Example 4A, read-out: IC50
[2] = SH-SY5Y cells, 50% decrease in fluorescence response to 80 μM BzATP, read-out: IC50
[3] = 50% decrease in the fluorescence response of cells exposed to 80 μM of 2′(3′)-O-(4-benzoyl-benzoyl)adenosine 5′-triphosphate, determined as in Example 4A, read-out: IC50
[4] = fluorescence response of cells exposed to 80 μM 2′(3′)-O-(4-benzoyl-benzoyl)adenosine 5′-triphosphate, Example 4A, read-out: IC50
[5] = 50% decrease in the fluorescence response of cells exposed to 80 μM of 2′(3′)-O-(4-benzoyl-benzoyl)adenosine 5′-triphosphate, Example 4A, read-out: IC50

SMILES: C[C@H]1CN(C(=O)c2cn3c(C(=O)NCC45CC6CC(CC(C6)C4)C5)cccc3n2)CCN1 [Compound 616, N-(adamantan-1-ylmethyl)-2-{[(3S)-3-methylpiperazin-1-yl]carbonyl}imidazo[1,2-a]pyridine-5-carboxamide]
- IC50 [1]: < 2 µM

SMILES: CC(C)(C)OC(=O)N[C@@H]1CCN(Cc2cn3c(C(=O)NCC45CC6CC(CC(C6)C4)C5)cccc3n2)C1 [Compound 62, tert-butyl [(3R)-1-({5-[(adamantan-1-ylmethyl)carbamoyl]imi-dazo[1,2-a]pyridin-2-yl}methyl)pyrrolidin-3-yl]carbamate]
- IC50: < 2 µM

SMILES: CS(=O)(=O)NCCc1cn2c(C(=O)NCC34CC5CC(CC(C5)C3)C4)cccc2n1 [Compound 193, N-(adamantan-1-ylmethyl)-2-{2-[(methylsulfonyl)amino]eth-yl}imidazo[1,2-a]pyridine-5-carboxamide]
- IC50 [2]: < 2 µM

SMILES: CC(C)CC(CNC(=O)c1cccc2nc(CCl)cn12)c1ccccc1 (stereo not shown) [Compound 138, 2-(chloromethyl)-N-(4-methyl-2-phenylpentyl)imidazo[1,2-a]pyridine-5-carboxamide]
- IC50 [2]: < 2 µM

SMILES: O=C(O)CCSCc1cn2c(C(=O)NCC34CC5CC(CC(C5)C3)C4)cccc2n1 [Compound 342, 3-[({5-[(adamantan-1-ylmethyl)carbamoyl]imidazo[1,2-a]pyridin-2-yl}methyl)thio] propanoic acid]
- IC50 [4]: < 2 µM

SMILES: NC(=O)C1CCCN(C(=O)c2cn3c(C(=O)NCC45CC6CC(CC(C6)C4)C5)cccc3n2)C1 (stereo not shown) [Compound 103, N-(adamantan-1-ylmethyl)-2-[(3-carbamoylpiperidin-1-yl)carbonyl]imidazo[1,2-a]pyridine-5-carboxamide]
- IC50 [2]: < 2 µM

SMILES: COC(=O)CN(C)C(=O)c1cn2c(NC(=O)CC34CC5CC(CC(C5)C3)C4)cccc2n1 [Compound 377, methyl N-({5-[(adamantan-1-ylacetyl)amino]imidazo[1,2-a]pyridin-2-yl}carbonyl)-N-methylglycinate]
- IC50 [4]: < 2 µM

SMILES: O=C(O)Cc1nnn(Cc2cn3c(C(=O)NCC45CC6CC(CC(C6)C4)C5)cccc3n2)n1 [Compound 903, [2-({5-[(adamantan-1-ylmethyl)carbamoyl]imidazo[1,2-a]pyridin-2-yl}methyl)-2H-tetrazol-5-yl]acetic acid]
- IC50 [3]: < 2 µM

SMILES: CC(C)CNC(=O)c1cn2c(C(=O)NC[C@@H]3CC[C@H]4C[C@@H]3C4(C)C)cccc2n1 [Compound 496, 5-N-{[(1S,2R,5S)-6,6-dimethylbicyclo[3.1.1]hept-2-yl]methyl}-2-N-isobutylimidazo[1,2-a]pyridine-2,5-dicarboxamide]
- IC50 [1]: < 2 µM

SMILES: CNC(=O)CC1(c2cn3c(C(=O)NCC45CC6CC(CC(C6)C4)C5)cccc3n2)CC(=O)N(C)C1=O (stereo not shown) [Compound 807, N-(adamantan-1-ylmethyl)-2-{1-methyl-3-[2-(methylamino)-2-oxoethyl]-2,5-dioxopyrrolidin-3-yl}imidazo[1,2-a] pyridine-5-carboxamide]
- IC50 [5]: < 2 µM

SMILES: CN(C)C1CCCN(C(=O)Cc2cn3c(C(=O)NCC4(c5ccc(C(F)(F)F)cc5)CCCCC4)cccc3n2)C1 (stereo not shown) [Compound 892, 2-{2-[3-(dimethylamino)piperidin-1-yl]-2-oxoethyl}-N-({1-[4-(trifluoromethyl)phenyl]cyclohexyl}methyl) imidazo[1,2-a] pyridine-5-carboxamide]
- IC50 [3]: < 2 µM

SMILES: CCCN(C)C(=O)c1cn2c(NC(=O)CC34CC5CC(CC(C5)C3)C4)cccc2n1 [Compound 361, 5-[(adamantan-1-ylacetyl)amino]-N-methyl-N-propylimidazo[1,2-a]pyridine-2-carboxamide]
- IC50 [4]: < 2 µM

SMILES: CCCOCCNC(=O)Cc1cn2c(C(=O)NCC(CC(C)C)c3ccccc3)cccc2n1 (stereo not shown) [Compound 230, N-(4-methyl-2-phenylpentyl)-2-{2-oxo-2-[(2-propoxyethyl)amino]ethyl}imidazo[1,2-a]pyridine-5-carboxamide]
- IC50 [4]: < 2 µM

SMILES: CCN(Cc1cn2c(C(=O)NCC34CC5CC(CC(C5)C3)C4)cccc2n1)C(=O)OC(C)OC(C)=O (stereo not shown) [Compound 1059, 1-{[({5-[(adamantan-1-ylmethyl)carbamoyl]imidazo [1,2-a]pyridin-2-yl}methyl)(ethyl)carbamoyl]oxy} ethyl acetate]
- IC50 (P2X7 calcium mobilization, Example 4A, 50% decrease in the fluorescence response of cells exposed to 80 μM of (2′(3′)-O-(4-benzoyl-benzoyl)adenosine 5′-triphosephate), read-out: IC50): < 2 µM

SMILES: CN(Cc1ccc(C(F)(F)F)cn1)C(=O)c1cn2c(C(=O)NCC34CC5CC(CC(C5)C3)C4)cccc2n1 [Compound 711, 5-N-(adamantan-1-ylmethyl)-2-N-methyl-2-N-{[5-(trifluoromethyl)pyridin-2-yl]methyl}imidazo[1,2-a]pyridine-2,5-dicarboxamide]
- IC50 [5]: < 2 µM

SMILES: CS(=O)(=O)C1CCN(C(=O)c2cn3c(C(=O)NCC45CC6CC(CC(C6)C4)C5)cccc3n2)CC1 [Compound 96, N-(adamantan-1-ylmethyl)-2-{[4-(methyl-sulfonyl)piperidin-1-yl]carbonyl}imidazo[1,2-a]pyridine-5-carboxamide]
- IC50 [2]: < 2 µM

SMILES: CCCNC(=O)Cc1cn2c(C(=O)NCC34CC5CC(CC(C5)C3)C4)cccc2n1 [Compound 146, N-(adamantan-1-ylmethyl)-2-[2-oxo-2-(propylamino)ethyl]imi-dazo[1,2-a]pyridine-5-carboxamide]
- IC50: < 2 µM

SMILES: CC1(C)[C@H]2CC[C@@H](CNC(=O)c3cccc4nc(C(=O)N5CCC(N)C5)cn34)[C@@H]1C2 (stereo partly drawn) [Compound 315, 2-[(3-aminopyrrolidin-1-yl)carbonyl]-N-{[(1S,2R,5S)-6,6-dimethylbicyclo[3.1.1]hept-2-yl]methyl}imidazo[1,2-a]pyridine-5-carboxamide]
- IC50 [4]: < 2 µM

Next, values leading:

- IC50 [3]: < 2 µM
SMILES: O=C(Cc1cn2c(C(=O)NCC3(c4ccc(Cl)cc4)CCCCC3)cccc2n1)N[C@@H]1CCNC1 [Compound 961, N-{[1-(4-chlorophenyl)cyclohexyl]methyl}-2-{2-oxo-2-[(3R)-pyrrolidin-3-ylamino]ethyl} imidazo [1,2-a]pyridine-5-carboxamide]

- IC50 [3]: < 2 µM
SMILES: O=C(NCC1(c2ccc(Cl)cc2)CCCCC1)c1cccc2nc(CC(=O)N3CCSCC3)cn12 [Compound 891, N-{[1-(4-chlorophenyl)cyclohexyl]methyl}-2-(2-oxo-2-thiomorpholin-4-ylethyl)imidazo [1,2-a]pyridine-5-carboxamide]

- IC50 [1]: < 2 µM
SMILES: CC1(C)[C@@H]2CC[C@@H](CNC(=O)c3cccc4nc(CC(=O)N5CCCNCC5)cn34)[C@H]1C2 [Compound 560, 2-[2-(1,4-diazepan-1-yl)-2-oxoethyl]-N-{[(1R,2R,5R)-6,6-dimethylbicyclo[3.1.1]hept-2-yl]methyl}imidazo[1,2-a]pyridine-5-carboxamide]

- IC50 [1]: < 2 µM
SMILES: CC1(C)[C@@H]2CC[C@@H](CNC(=O)c3cccc4nc(CC(=O)NC5CCNCC5)cn34)[C@H]1C2 [Compound 592, N-{[(1R,2R,5R)-6,6-dimethylbicyclo[3.1.1]hept-2-yl]methyl}-2-[2-oxo-2-(piperidin-4-ylamino)ethyl]imidazo [1,2-a]pyridine-5-carboxamide]

- IC50 [4]: < 2 µM
SMILES: CC(C)CC(CNC(=O)c1cccc2nc(CC(=O)NC3CCCC3)cn12)c1ccccc1 (stereo not shown) [Compound 224, 2-[2-(cyclopentylamino)-2-oxoethyl]-N-(4-methyl-2-phenylpentyl) imidazo [1,2-a]pyridine-5-carboxamide]

- IC50 [2]: < 2 µM
SMILES: O=C(NCC12CC3CC(CC(C3)C1)C2)c1cccc2nc(CN3CCC(O)C3)cn12 (stereo not shown) [Compound 134, N-(adamantan-1-ylmethyl)-2-[(3-hydroxypyrrolidin-1-yl)methyl]imidazo[1,2-a]pyridine-5-carboxamide]

- IC50 [3]: < 2 µM
SMILES: CCCC(CNC(=O)c1cccc2nc(CC(=O)N3CCC[C@@H](N)C3)cn12)c1ccc(Cl)cc1 (stereo partly drawn) [Compound 929, 2-{2-[(3R)-3-aminopiperidin-1-yl]-2-oxoethyl}-N-[2-(4-chlorophenyl)pentyl] imidazo[1,2-a] pyridine-5-carboxamide]

- IC50 [3]: < 2 µM
SMILES: O=C(NCC12CC3CC(CC(C3)C1)C2)c1cccc2nc(C(Cc3cccc(Cl)c3)C(=O)O)cn12 (stereo not shown) [Compound 848, 2-{5-[(adamantan-1-ylmethyl)carbamoyl]imidazo[1,2-a]pyridin-2-yl}-3-(3-chlorophenyl) propanoic acid]

- IC50 [3]: < 2 µM
SMILES: O=C(Cc1cn2c(C(=O)NCC3(c4ccc(Cl)cc4)CCCCC3)cccc2n1)NC1CCCC1 [Compound 866, N-{[1-(4-chlorophenyl)cyclohexyl]methyl}-2-[2-(cyclopentylamino)-2-oxoethyl]imidazo [1,2-a]pyridine-5-carboxamide]

- IC50 [5]: < 2 µM
SMILES: CN1CCC(NC(=O)c2cn3c(C(=O)NCC45CC6CC(CC(C6)C4)C5)cccc3n2)CC1 [Compound 659, 5-N-(adamantan-1-ylmethyl)-2-N-(1-methylpiperidin-4-yl)imidazo[1,2-a]pyridine-2,5-dicarboxamide]
